Laboratory results: PubChem BioAssay (NCI)
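A five-concentration, 48-hour dose response in 96-well plates underlies each endpoint, interpolated linearly between surrounding concentrations. TGI is the concentration that stops growth completely.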

Assays:
Test in all cases: DTP human tumour cell line panel, 48 h
MOLT-4 leukemia = tested on: MOLT-4 leukemia
786-0 renal = tested on: 786-0 renal
T-47D breast = tested on: T-47D breast
A498 renal = tested on: A498 renal
EKVX NSCLC = tested on: EKVX NSCLC
NCI-H460 lung = tested on: NCI-H460 lung
ACHN renal = tested on: ACHN renal
OVCAR-3 ovarian = tested on: OVCAR-3 ovarian
SK-OV-3 ovarian = tested on: SK-OV-3 ovarian
IGROV1 ovarian = tested on: IGROV1 ovarian
PC-3 prostate = tested on: PC-3 prostate
OVCAR-4 ovarian = tested on: OVCAR-4 ovarian
SF-295 CNS = tested on: SF-295 CNS
SW-620 colon = tested on: SW-620 colon
M14 melanoma = tested on: M14 melanoma
UO-31 renal = tested on: UO-31 renal
NCI-H23 lung = tested on: NCI-H23 lung
OVCAR-5 ovarian = tested on: OVCAR-5 ovarian
SK-MEL-28 melanoma = tested on: SK-MEL-28 melanoma
SN12C renal = tested on: SN12C renal
NCI-H226 lung = tested on: NCI-H226 lung
MALME-3M melanoma = tested on: MALME-3M melanoma
MDA-N = tested on: MDA-N
RXF 393 renal = tested on: RXF 393 renal
HCT-15 colon = tested on: HCT-15 colon
A549 NSCLC = tested on: A549 NSCLC
RPMI-8226 leukemia = tested on: RPMI-8226 leukemia
SK-MEL-5 melanoma = tested on: SK-MEL-5 melanoma
DU-145 prostate = tested on: DU-145 prostate
SNB-19 CNS = tested on: SNB-19 CNS
OVCAR-8 ovarian = tested on: OVCAR-8 ovarian
K-562 leukemia = tested on: K-562 leukemia
KM12 colon = tested on: KM12 colon
MDA-MB-435 = tested on: MDA-MB-435
UACC-257 melanoma = tested on: UACC-257 melanoma
HCC-2998 colon = tested on: HCC-2998 colon
NCI-H522 lung = tested on: NCI-H522 lung
HOP-92 NSCLC = tested on: HOP-92 NSCLC
HS 578T breast = tested on: HS 578T breast
BT-549 breast = tested on: BT-549 breast
UACC-62 melanoma = tested on: UACC-62 melanoma
HCT-116 colon = tested on: HCT-116 colon
HT29 colon = tested on: HT29 colon
NCI/ADR-RES ovarian = tested on: NCI/ADR-RES ovarian
SK-MEL-2 melanoma = tested on: SK-MEL-2 melanoma
MCF7 breast = tested on: MCF7 breast
SF-268 CNS = tested on: SF-268 CNS
CAKI-1 renal = tested on: CAKI-1 renal
TK-10 renal = tested on: TK-10 renal
HL-60(TB) leukemia = tested on: HL-60(TB) leukemia
HOP-62 NSCLC = tested on: HOP-62 NSCLC
LOX IMVI melanoma = tested on: LOX IMVI melanoma
SR leukemia = tested on: SR leukemia
U251 CNS = tested on: U251 CNS
MDA-MB-231 breast = tested on: MDA-MB-231 breast
COLO 205 colon = tested on: COLO 205 colon
SNB-75 CNS = tested on: SNB-75 CNS
SF-539 CNS = tested on: SF-539 CNS
CCRF-CEM leukemia = tested on: CCRF-CEM leukemia

O=C1CNC(=O)/C(=C/c2c[nH]c3ccccc23)N1
TGI (MOLT-4 leukemia): > 100 µM | TGI (786-0 renal): > 100 µM | TGI (T-47D breast): > 100 µM | TGI (A498 renal): > 100 µM | TGI (EKVX NSCLC): > 100 µM | TGI (NCI-H460 lung): > 100 µM | TGI (ACHN renal): > 100 µM | TGI (OVCAR-3 ovarian): > 100 µM | TGI (SK-OV-3 ovarian): > 100 µM | TGI (IGROV1 ovarian): > 100 µM | TGI (PC-3 prostate): > 100 µM | TGI (OVCAR-4 ovarian): > 100 µM | TGI (SF-295 CNS): > 100 µM | TGI (SW-620 colon): > 100 µM | TGI (M14 melanoma): > 100 µM | TGI (UO-31 renal): > 100 µM | TGI (NCI-H23 lung): > 100 µM | TGI (OVCAR-5 ovarian): > 100 µM | TGI (SK-MEL-28 melanoma): > 100 µM | TGI (SN12C renal): > 100 µM | TGI (NCI-H226 lung): > 100 µM | TGI (MALME-3M melanoma): > 100 µM | TGI (MDA-N): > 100 µM | TGI (RXF 393 renal): > 100 µM | TGI (HCT-15 colon): > 100 µM | TGI (A549 NSCLC): > 100 µM | TGI (RPMI-8226 leukemia): > 100 µM | TGI (SK-MEL-5 melanoma): > 100 µM | TGI (DU-145 prostate): > 100 µM | TGI (SNB-19 CNS): > 100 µM | TGI (OVCAR-8 ovarian): > 100 µM | TGI (K-562 leukemia): > 100 µM | TGI (KM12 colon): > 100 µM | TGI (MDA-MB-435): > 100 µM | TGI (UACC-257 melanoma): > 100 µM | TGI (HCC-2998 colon): > 100 µM | TGI (NCI-H522 lung): > 100 µM | TGI (HOP-92 NSCLC): > 100 µM | TGI (HS 578T breast): > 100 µM | TGI (BT-549 breast): > 100 µM | TGI (UACC-62 melanoma): > 100 µM | TGI (HCT-116 colon): > 100 µM | TGI (HT29 colon): > 100 µM | TGI (NCI/ADR-RES ovarian): > 100 µM | TGI (SK-MEL-2 melanoma): > 100 µM | TGI (MCF7 breast): > 100 µM | TGI (SF-268 CNS): > 100 µM | TGI (CAKI-1 renal): > 100 µM | TGI (TK-10 renal): > 100 µM | TGI (HL-60(TB) leukemia): > 100 µM | TGI (HOP-62 NSCLC): > 100 µM | TGI (LOX IMVI melanoma): > 100 µM

O/N=C(/C(Cl)=C(Cl)Cl)C(Cl)Cl
TGI (MOLT-4 leukemia): 37.1 µM | TGI (786-0 renal): 34 µM | TGI (A498 renal): > 100 µM | TGI (EKVX NSCLC): > 100 µM | TGI (NCI-H460 lung): > 100 µM | TGI (ACHN renal): 32 µM | TGI (OVCAR-3 ovarian): 38.6 µM | TGI (SR leukemia): 26.7 µM | TGI (SK-OV-3 ovarian): 74.7 µM | TGI (IGROV1 ovarian): 44.6 µM | TGI (PC-3 prostate): 33.9 µM | TGI (OVCAR-4 ovarian): 30.3 µM | TGI (SF-295 CNS): 35.8 µM | TGI (SW-620 colon): 38.8 µM | TGI (U251 CNS): 35.2 µM | TGI (M14 melanoma): 40.8 µM | TGI (UO-31 renal): 49 µM | TGI (NCI-H23 lung): 30.7 µM | TGI (OVCAR-5 ovarian): 49.4 µM | TGI (SK-MEL-28 melanoma): 30.2 µM | TGI (SN12C renal): 34.1 µM | TGI (NCI-H226 lung): > 100 µM | TGI (MALME-3M melanoma): 77.9 µM | TGI (MDA-N): 32.8 µM | TGI (RXF 393 renal): 30.5 µM | TGI (HCT-15 colon): 33.5 µM | TGI (A549 NSCLC): > 100 µM | TGI (RPMI-8226 leukemia): 50.2 µM | TGI (SK-MEL-5 melanoma): 40.3 µM | TGI (DU-145 prostate): 97.4 µM | TGI (MDA-MB-231 breast): 40 µM | TGI (SNB-19 CNS): > 100 µM | TGI (OVCAR-8 ovarian): 66.8 µM | TGI (K-562 leukemia): 38 µM | TGI (KM12 colon): 47.4 µM | TGI (MDA-MB-435): 33.1 µM | TGI (UACC-257 melanoma): 40.6 µM | TGI (COLO 205 colon): 44.2 µM | TGI (HCC-2998 colon): 79.6 µM | TGI (HS 578T breast): 61.3 µM | TGI (BT-549 breast): 41.4 µM | TGI (UACC-62 melanoma): 77.2 µM | TGI (SNB-75 CNS): 43.7 µM | TGI (HCT-116 colon): 34.8 µM | TGI (HT29 colon): 30.3 µM | TGI (NCI/ADR-RES ovarian): 73 µM | TGI (MCF7 breast): 60.7 µM | TGI (SF-268 CNS): 36.3 µM | TGI (CAKI-1 renal): 87.3 µM | TGI (TK-10 renal): 34.7 µM | TGI (HL-60(TB) leukemia): 26.3 µM | TGI (SF-539 CNS): 44.9 µM | TGI (HOP-62 NSCLC): 46.9 µM | TGI (LOX IMVI melanoma): 37.3 µM | TGI (CCRF-CEM leukemia): 36.7 µM
